Measurements: patent US5652334A, “Method for design of substances that enhance memory and improve the quality of life” (City of Hope, priority 1993, dated 1997)
Ends that are not written are not given here. Peptide text beside a SMILES is read from it.

Columns and labels:
CD-1 male mice [1] = details: cited from earlier work; for amnestic effect on retention of FAAT (earlier publications): post-training ICV, references 1 and 12
CD-1 male mice [2] = assay: FAAT in T-maze, memory-enhancement test in weakly trained mice (poor retention in vehicle controls), post-training ICV injection; type: in vivo; details: for Lowest Concentration For Significant Memory Enhancement: Table 1
Protocol: (§1) Test Animals. After 1 week in the laboratory, CD-1 male mice obtained from Charles River Breeding Laboratories were caged individually 24-28 hours prior to training and remained singly housed until retention was tested one week later. Animal rooms were on a 12 hour light/dark cycle with lights going on at the hour of 0600. Median body weight was 35 g, with a range of 33-38 g. Mice were assigned randomly to groups of 15 in the experiments reported in FIGS. 1-18 and groups of 10 for the dose-response curves (FIGS. 19 and 20) and were trained and tested between the hours of 0700 and 1500.
Peptides Tested. With the exception of Val Phe and Phe Val from Sigma, all peptides used in these studies were synthesized and analyzed to establish purity by standard methods at the Beckman Research Institute. Peptides were dissolved in: (1) saline; (2) 8% vol/vol dimethyl sulfoxide; (3) glacial acetic acid neutralized with […]; or (4) NaOH neutralized with HCl. […] Analysis of variance showing insignificant differences among the latter, the value for the most frequently employed (No. 2 above) was used for comparison with groups receiving test peptides.
(§2) Apparatus, Training and Testing Procedures. The T-maze used for footshock active avoidance training (FAAT) consisted of a black plastic alley (46 cm long) with a start box at one end and two goal boxes (17.5 cm long) at the other. The start box was separated from the alley by a plastic guillotine door that prevented movement down the alley until training began. The alley was 12.5 cm deep and 9.8 cm wide. An electrifiable stainless steel rod floor ran throughout the maze.
(§3) Mice were not permitted to explore the maze before training. A block of training trials began when a mouse was placed in the start box. The guillotine door was raised and a muffled doorbell-type buzzer sounded simultaneously; footshock was 5 seconds later through a scrambled grid floor shocker (Colbourn Instruments, Model E13-08). The goal box first entered during the first set of trials was designated as "incorrect", and footshock was continued until the mouse entered the other goal box, which in all subsequent trials was designated "correct" for the particular mouse. At the end of each group of trials, the mouse was removed to its home cage.
(§4) As training proceeded, a mouse made one of two types of responses. A response latency longer than 5 seconds was classed as an escape from the footshock. A response latency less than or equal to 5 seconds was considered an avoidance, since the mouse avoided receiving a footshock. Two exclusion criteria were applied to reduce learning variability among mice, as follows. On the first training trials, mice with escape latencies greater than 20 seconds were discarded. Mice not having at least one errorless escape latency between 1.5 and 3.5 seconds on training trials 3 or 4 were excluded. The total exclusions were fewer than 15%. Mice received five such training trials. One week after training and post-trial administration of vehicle alone or vehicle containing test substance, T-maze training was resumed until each mouse made five avoidance responses in six consecutive training trials (trials to criterion). The recall score was taken to be the percentage of tested mice remembering original training.
Well-trained animals (recall score approximately 80%) were used to determine whether or not administered substances could cause amnesia. In these instances, training was performed under conditions that tend to maximize learning (sound intensity, 65 decibels; footshock current, 0.35 mA; intertrial interval, 45 seconds). In the cases in which it was desired to detect whether or not there was an enhancing effect on memory, training conditions were adjusted so that the initial recall score in vehicle controls was only approximately 20% (sound intensity, 55 decibels; footshock current, 0.30 mA; intertrial interval, 30 seconds). […]

CD-1 male mice [3] = assay: Footshock active avoidance training (FAAT) in T-maze, amnesia test in well-trained mice, post-training ICV injection; type: in vivo; details: for amnestic effect on retention of FAAT: 6.14 nmol of peptide per mouse (except dose-response curves), well-trained mice, retention tested one week later; for amnestic efficacy/potency compared with another peptide: dose-response curves / FIG. 19
Protocol: as §1
Peptides Tested. With the exception of Val Phe and Phe Val from Sigma, all peptides used in these studies were synthesized and analyzed to establish purity by standard methods at the Beckman Research Institute. Peptides were dissolved in: (1) saline; (2) 8% vol/vol dimethyl sulfoxide; (3) glacial acetic acid neutralized with […]; or (4) NaOH neutralized with HCl.
With exception of dose-response curves, the experiments reported below tested whether or not there was an amnestic effect at 6.14 nmol of peptide per mouse.
as §2, §3
as §4, with “The total exclusions were fewer than 15%.” left out
In these instances, training was performed under conditions that tend to maximize learning (sound intensity, 65 decibels; footshock current, 0.35 mA; intertrial interval, 45 seconds).

[4] = references 13-16; cited from earlier work
[5] = system: hippocampal neurons in culture; details: reference 17; cited from earlier work

Molecule: VFFAEDVGSNK [β-(18-28)]
- amnestic effect on retention of FAAT (earlier publications) (CD-1 male mice [1]): amnestic

Molecule: NC(=O)CC[C@H](N)C(=O)N[C@@H](Cc1ccccc1)C(=O)N[C@@H](Cc1ccccc1)C(=O)NCC(=O)O [Gln Phe Phe Gly] (H-QFFG-OH)
- dose at which statistically significant memory enhancement found (CD-1 male mice [2]; weakly trained animals): 10^-14 moles/mouse
- memory-enhancing potency compared with other peptides (CD-1 male mice [2]; weakly trained mice): by far the most potent
- Lowest Concentration For Significant Memory Enhancement (CD-1 male mice [2]; weakly trained mice): 6 × 10^-14 Moles/Mouse
- amnestic effect on retention of FAAT (CD-1 male mice [3]; post-training ICV): amnestic

Molecule: Pro Arg Pro Gly Pro Gln Gln Phe Phe Gly Leu Met-NH2 (PRPGPQQFFGLM-NH2) [Substance Pro]
- memory retention (literature) [4]: enhance memory retention
- effect on trophic and toxic effects of β-A4 on hippocampal neurons [5]: counteract trophic and toxic effects of B-A4 on hippocampal neurons in culture

Molecule: CC(C)[C@H](N)C(=O)N[C@@H](Cc1ccccc1)C(=O)N[C@@H](Cc1ccccc1)C(=O)O [Val Phe Phe] (H-Val-Phe-Phe-OH)
- dose at which statistically significant memory enhancement found (CD-1 male mice [2]; weakly trained animals): 1.9×10^-11 moles/mouse
- memory-enhancing effect (CD-1 male mice [2]; weakly trained animals): memory enhancer
- Lowest Concentration For Significant Memory Enhancement (CD-1 male mice [2]; weakly trained mice): 1.9 × 10^-11 Moles/Mouse
- amnestic efficacy/potency compared with another peptide (CD-1 male mice [3]; ICV): not significantly different from that of the β-A4 homologue [Gln^11 ]β-(1-28)
- dose at which amnesia first noted (CD-1 male mice [3]; ICV, well-trained animals): 3×10^-9 moles/mouse
- amnestic effect on retention of FAAT (CD-1 male mice [3]; post-training ICV): amnestic

Molecule: N[C@@H](Cc1ccccc1)C(=O)N[C@@H](Cc1ccccc1)C(=O)O [Phe Phe] (H-Phe-Phe-OH)
- amnestic effect on retention of FAAT (CD-1 male mice [3]; post-training ICV): amnestically ineffective
- mean trials to criterion ±SEM (CD-1 male mice [3]; post-training ICV, 6.14 nmol per mouse, vehicle 6.80±0.21): 7.0±0.42

Molecule: CC(C)[C@H](N)C(=O)N[C@@H](Cc1ccccc1)C(=O)N[C@H](C(=O)O)[C@@H](C)O [Val Phe Thr] (H-Val-Phe-Thr-OH)
- amnestic effect on retention of FAAT (CD-1 male mice [3]; post-training ICV): amnestic

Molecule: β-(1-18): β-A4 fragment as printed in b47; probably the β-(1-28) homologue of reference 1 (DAEFRHDSGYEVHHQKLV; Amyloid-beta protein 42; UniProt P05067 672-689, looked up, fragment)
- dose at which active (amnestic) (CD-1 male mice [1]; ICV, reference 1): 1.5 nmol per mouse

Molecule: VFFAE [Val Phe Phe Ala Glu]
- amnestic efficacy/potency compared with another peptide (CD-1 male mice [3]; ICV): lesser potency of Val Phe Phe Ala Glu than that of Val Phe Phe
- amnestic effect on retention of FAAT (CD-1 male mice [3]; post-training ICV): amnestic

Molecule: KLVFFAE [Lys Leu Val Phe Phe Ala Glu]
- amnestic effect on retention of FAAT (CD-1 male mice [3]; post-training ICV): not amnestic

Molecule: His Ser Asp Ala Val Phe Thr Asp Asn Tyr Thr Arg Leu Lys Gln Met Ala Val Lys Lys Tyr Leu Asn Ser Ile Leu Asn-NH2 (HSDAVFTDNYTRLKQMAVKKYLNSILN-NH2) [VIP]
- amnestic effect on retention of FAAT (earlier publications) (CD-1 male mice [1]): amnestic
